Test results: patent US20030224026A1, “Dermatological or cosmetic composition which includes aromatic nitroxide compounds and their use” (priority 2002, published 2003)

Key:
[1] = Peroxidation of multilamellar PC liposomes with incorporated nitroxides, induced by Bu^tOOH/Cytochrome C, oxygen consumption; settings: 22 μM nitroxide incorporated inside 0.77 mM multilamellar liposomes; pH 7.4, 37° C., 5 minutes
Method: The compounds are indicated with the abbreviations: MC4, DC4, TEMPO and TDN as defined for FIG. 2. With reference to FIG. 4, the percentage inhibition of the consumption of oxygen was obtained from measurements carried out on an oxygraph. The system studied consists of multilamellar PC liposomes which have nitroxides incorporated inside them ([…]) in 5 mM phosphate buffer saline, 0.1 mM EDTA, pH 7.4 at 37° C.
The Applicant carried out an experimental test to evaluate the peroxidation of multilamellar PC liposomes, induced through the Bu^tOOH/Cytochrome C system.
The liposomes employed in this experimental system contain inside them the antioxidant agents. […] The peroxidation of these liposomes was evaluated by monitoring the consumption of oxygen in a final volume of 1.8 ml and at a constant temperature of 37° C. in 5 mM of phosphate buffer saline, 0.1 mM EDTA, pH 7.4 as previously described.
The final concentration of the liposomes and of antioxidant agents, in the oxidation chamber, was 0.77 mM and 22 μM respectively. […] The consumption of oxygen was monitored for 5 minutes. For each of the nitroxides tested, the degree of suppression of oxygen consumption was calculated. […]

[2] = Peroxidation of unilamellar PC liposomes induced by Bu^tOOH/Cytochrome C, oxygen consumption (oxygraph); settings: for inhibition of oxygen consumption: 5 μM nitroxide added 80 s after onset, 2.4 mM unilamellar PC liposomes, PBS pH 7.4, 37° C., 6 minutes
Method: Oxidation was induced by injecting at point A, 25 μl of Bu^tOOH 7.3 M and injecting at point B 25 μl of cytochrome C (1 mg protein/ml). Point C refers to the addition of 5 μM of the following compounds (if not specified otherwise):
The compounds are indicated with the following abbreviations: MC4, the compound with formula (I) in which R=C4 alkyl residue; DC4, the compound with formula (I) in which R=(X) and (X) contains R1=C4 methylenic alkyl residue; MC8, the compound with formula (I) in which R=C8 alkyl residue; DC8, the compound with formula (I) in which R=(X) and (X) contains R1=C8 methylenic alkyl residue; TEMPO and TDN. With reference to FIG. 2, the percentage inhibition of the consumption of oxygen in PC unilamellar liposome (2.4 mM) in 5 mM phosphate buffer saline, 0.1 mM EDTA, pH 7.4 at 37° C. to which 5 μM nitroxide compounds was added are reported.
The Applicant has selected certain nitroxide radicals as antioxidant agents following experimental tests. The antioxidant properties were studied in the laboratory in different biological systems. The systems employed are biological systems which mimic in vivo ones. The biological systems used are subjected to oxidative damage. Oxidative damage was induced in various ways. The Applicant carried out an experimental test to evaluate the peroxidation of unilamellar PC liposomes induced by the use of the Bu^tOOH/Cytochrome C system. […]
After 80 seconds from the onset of peroxidation, the different nitroxide radicals at final concentration of 5 μM were added. […] The reaction was monitored for 6 minutes. For each nitroxide tested, the extent of inhibition of the consumption of oxygen was calculated. The value of inhibition was calculated in the following way: […]
Each individual recording is reported in FIG. 1, since the rate of oxygen consumption before the addition of the antioxidant compounds at point C is always constant. From these experiments, the percentage inhibition of oxygen consumption was calculated by subtraction as reported above.

Row | Compound | inhibited peroxidation (percentage of inhibition of oxygen consumption) [1] | inhibition of oxygen consumption [2] | protective effects against lipid peroxidation ([2]; higher concentration than 5 μM, same experimental conditions)
1 | CC1(C)CCCC(C)(C)N1[O] [TEMPO, 2,2,6,6-tetramethylpiperidine-1-oxyl] | no effect | no protective effects | no protective effects
2 | bis(2,2,6,6-tetramethylpiperidine-1-oxyl-4-yl)sebacate [TDN] | 45% | lower inhibition values with respect to DC4 | –
